Results: article PMC9186362, “Design and biological evaluation of substituted 5,7-dihydro-6H-indolo[2,3-c]quinolin-6-one as novel selective Haspin inhibitors” (Journal of Enzyme Inhibition and Medicinal Chemistry, 2022)

Columns and labels:
Experiment in all cases: SelectScreen ZLYTE
Assay type in all cases: biochemical
Conditions in all cases: ATP Km, read-out: Percentage of inhibition
STK3 (MST2) = molecular target: T1, STK3 (MST2) (Homo sapiens, UniProt Q13188)
T1 construct: purchased Life Technologies (SelectScreen Whole Panel)
Protocol: (§1) We further evaluated the selectivity profile of compound 55 on a larger panel of kinases (SelectScreen Whole Panel, Life Technologies). The inhibition profile of 55, evaluated at 1 μM, is depicted on a dendrogram on Figure 3 where kinases inhibited by a minimum of 80% are shown. A full list of the kinases tested is shown on Table S1 in supplementary information.

PAK3 = molecular target: T2, PAK3 (Homo sapiens, UniProt O75914)
T2 construct: purchased Life Technologies
Protocol: as §1

MAP4K4 (HGK) = molecular target: T3, MAP4K4 (HGK) (Homo sapiens, UniProt O95819)
T3 construct: purchased Life Technologies (SelectScreen service)
Protocol: as §1

KSR2 = KSR2 (Homo sapiens, UniProt Q6VAB6)
Protocol: as §1

[1] = molecular target: CSNK1E (CK1 epsilon) R178C (Homo sapiens, UniProt P49674, R178C)
Protocol: as §1

RPS6KA5 (MSK1) = molecular target: T4, RPS6KA5 (MSK1) (Homo sapiens, UniProt O75582)
T4 construct: purchased Life Technologies
Protocol: as §1

DCAMKL1 (DCLK1) = molecular target: T5, DCAMKL1 (DCLK1) (Homo sapiens, UniProt O15075)
T5 construct: purchased Life Technologies
Protocol: as §1

AKT1 (PKB alpha) = AKT1 (PKB alpha) (Homo sapiens, UniProt P31749)
Protocol: as §1

JAK2 = molecular target: T6, JAK2 (Homo sapiens, UniProt O60674)
T6 construct: purchased Life Technologies (SelectScreen Whole Panel)
Protocol: as §1

ROS1 = molecular target: T7, ROS1 (Homo sapiens, UniProt P08922)
T7 construct: purchased Life Technologies
Protocol: as §1

SGKL (SGK3) = molecular target: T8, SGKL (SGK3) (Homo sapiens, UniProt Q96BR1)
T8 construct: purchased Life Technologies (SelectScreen)
Protocol: as §1

PDGFRB (PDGFR beta) = molecular target: T9, PDGFRB (PDGFR beta) (Homo sapiens, UniProt P09619)
T9 construct: purchased Life Technologies (SelectScreen service)
Protocol: as §1

MAPK3 (ERK1) = molecular target: T10, MAPK3 (ERK1) (Homo sapiens, UniProt P27361)
T10 construct: purchased Life Technologies
Protocol: as §1

MAP3K19 (YSK4) = molecular target: T11, MAP3K19 (YSK4) (Homo sapiens, UniProt Q56UN5)
T11 construct: purchased Life Technologies (SelectScreen Whole Panel)
Protocol: as §1

PRKCG (PKC gamma) = PRKCG (PKC gamma) (Homo sapiens, UniProt P05129)
Protocol: as §1

PKN1 (PRK1) = molecular target: T12, PKN1 (PRK1) (Homo sapiens, UniProt Q16512)
T12 construct: purchased Life Technologies
Protocol: as §1

NTRK3 (TRKC) = molecular target: T13, NTRK3 (TRKC) (Homo sapiens, UniProt Q16288)
T13 construct: purchased Life Technologies
Protocol: as §1

TEK (TIE2) Y897S = molecular target: T14, TEK (TIE2) Y897S (Homo sapiens, UniProt Q02763, Y897S)
T14 construct: purchased Life Technologies (SelectScreen Whole Panel)
Protocol: as §1

MARK4 = molecular target: T15, MARK4 (Homo sapiens, UniProt Q96L34)
T15 construct: purchased Life Technologies
Protocol: as §1

EEF2K = molecular target: T16, EEF2K (Homo sapiens, UniProt O00418)
T16 construct: purchased Life Technologies (SelectScreen)
Protocol: as §1

SRC = molecular target: T17, SRC (Homo sapiens, UniProt P12931)
T17 construct: purchased Life Technologies
Protocol: as §1

FGFR2 N549H = molecular target: T18, FGFR2 N549H (Homo sapiens, UniProt P21802, N549H)
T18 construct: purchased Life Technologies (SelectScreen service)
Protocol: as §1

AMPK (A1/B2/G2) = AMPK (A1/B2/G2) (Homo sapiens, UniProt Q13131)
Protocol: as §1

CHEK2 (CHK2) = molecular target: T19, CHEK2 (CHK2) (Homo sapiens, UniProt O96017)
T19 construct: purchased Life Technologies
Protocol: as §1

STK23 (MSSK1) = molecular target: T20, STK23 (MSSK1) (Homo sapiens, UniProt Q9UPE1)
T20 construct: purchased Life Technologies
Protocol: as §1

DYRK4 = molecular target: T21, DYRK4 (Homo sapiens, UniProt Q9NR20)
T21 construct: purchased Life Technologies
Protocol: as §1

SBK1 = molecular target: T22, SBK1 (Homo sapiens, UniProt Q52WX2)
T22 construct: purchased Life Technologies (SelectScreen Whole Panel)
Protocol: as §1

BMX = BMX (Homo sapiens, UniProt P51813)
Protocol: as §1

KIT V559D V654A = KIT V559D V654A (Homo sapiens, UniProt P10721, V559D/V654A)
Protocol: as §1

TNK1 = molecular target: T23, TNK1 (Homo sapiens, UniProt Q13470)
T23 construct: purchased Life Technologies
Protocol: as §1

ABL2 (Arg) = molecular target: T24, ABL2 (Arg) (Homo sapiens, UniProt P42684)
T24 construct: purchased Life Technologies (SelectScreen service)
Protocol: as §1

RET V804L = molecular target: T25, RET V804L (Homo sapiens, UniProt P07949, V804L)
T25 construct: purchased Life Technologies
Protocol: as §1

FRK (PTK5) = molecular target: T26, FRK (PTK5) (Homo sapiens, UniProt P42685)
T26 construct: purchased Life Technologies
Protocol: as §1

PIM3 = molecular target: T27, PIM3 (Homo sapiens, UniProt Q86V86)
T27 construct: purchased Life Technologies
Protocol: as §1

MAPK1 (ERK2) = MAPK1 (ERK2) (Homo sapiens, UniProt P28482)
Protocol: as §1

MET M1250T = molecular target: T28, MET M1250T (Homo sapiens, UniProt P08581, M1250T)
T28 construct: purchased Life Technologies (SelectScreen Whole Panel service)
Protocol: as §1

EGFR (ErbB1) C797S = molecular target: T29, EGFR (ErbB1) C797S (Homo sapiens, UniProt P00533, C797S)
T29 construct: purchased Life Technologies
Protocol: as §1

FLT3 D835Y = molecular target: T30, FLT3 D835Y (Homo sapiens, UniProt P36888, D835Y)
T30 construct: purchased Life Technologies (SelectScreen Whole Panel)
Protocol: as §1

T8 sequence (Q96BR1 whole entry): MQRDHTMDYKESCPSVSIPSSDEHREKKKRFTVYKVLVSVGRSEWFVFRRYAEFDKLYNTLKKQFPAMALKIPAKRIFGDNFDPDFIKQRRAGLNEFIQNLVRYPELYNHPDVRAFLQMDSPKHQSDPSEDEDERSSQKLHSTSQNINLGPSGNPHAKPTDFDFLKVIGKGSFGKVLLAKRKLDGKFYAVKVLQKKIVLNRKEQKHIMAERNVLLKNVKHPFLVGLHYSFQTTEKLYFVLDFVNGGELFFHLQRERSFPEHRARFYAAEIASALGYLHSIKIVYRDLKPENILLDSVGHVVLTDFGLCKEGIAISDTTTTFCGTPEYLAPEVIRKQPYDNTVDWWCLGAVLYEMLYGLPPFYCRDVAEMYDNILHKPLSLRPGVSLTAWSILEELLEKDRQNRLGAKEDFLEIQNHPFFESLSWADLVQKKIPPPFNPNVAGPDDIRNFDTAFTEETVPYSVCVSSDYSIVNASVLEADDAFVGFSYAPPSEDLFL
T7 sequence (P08922 28-2347): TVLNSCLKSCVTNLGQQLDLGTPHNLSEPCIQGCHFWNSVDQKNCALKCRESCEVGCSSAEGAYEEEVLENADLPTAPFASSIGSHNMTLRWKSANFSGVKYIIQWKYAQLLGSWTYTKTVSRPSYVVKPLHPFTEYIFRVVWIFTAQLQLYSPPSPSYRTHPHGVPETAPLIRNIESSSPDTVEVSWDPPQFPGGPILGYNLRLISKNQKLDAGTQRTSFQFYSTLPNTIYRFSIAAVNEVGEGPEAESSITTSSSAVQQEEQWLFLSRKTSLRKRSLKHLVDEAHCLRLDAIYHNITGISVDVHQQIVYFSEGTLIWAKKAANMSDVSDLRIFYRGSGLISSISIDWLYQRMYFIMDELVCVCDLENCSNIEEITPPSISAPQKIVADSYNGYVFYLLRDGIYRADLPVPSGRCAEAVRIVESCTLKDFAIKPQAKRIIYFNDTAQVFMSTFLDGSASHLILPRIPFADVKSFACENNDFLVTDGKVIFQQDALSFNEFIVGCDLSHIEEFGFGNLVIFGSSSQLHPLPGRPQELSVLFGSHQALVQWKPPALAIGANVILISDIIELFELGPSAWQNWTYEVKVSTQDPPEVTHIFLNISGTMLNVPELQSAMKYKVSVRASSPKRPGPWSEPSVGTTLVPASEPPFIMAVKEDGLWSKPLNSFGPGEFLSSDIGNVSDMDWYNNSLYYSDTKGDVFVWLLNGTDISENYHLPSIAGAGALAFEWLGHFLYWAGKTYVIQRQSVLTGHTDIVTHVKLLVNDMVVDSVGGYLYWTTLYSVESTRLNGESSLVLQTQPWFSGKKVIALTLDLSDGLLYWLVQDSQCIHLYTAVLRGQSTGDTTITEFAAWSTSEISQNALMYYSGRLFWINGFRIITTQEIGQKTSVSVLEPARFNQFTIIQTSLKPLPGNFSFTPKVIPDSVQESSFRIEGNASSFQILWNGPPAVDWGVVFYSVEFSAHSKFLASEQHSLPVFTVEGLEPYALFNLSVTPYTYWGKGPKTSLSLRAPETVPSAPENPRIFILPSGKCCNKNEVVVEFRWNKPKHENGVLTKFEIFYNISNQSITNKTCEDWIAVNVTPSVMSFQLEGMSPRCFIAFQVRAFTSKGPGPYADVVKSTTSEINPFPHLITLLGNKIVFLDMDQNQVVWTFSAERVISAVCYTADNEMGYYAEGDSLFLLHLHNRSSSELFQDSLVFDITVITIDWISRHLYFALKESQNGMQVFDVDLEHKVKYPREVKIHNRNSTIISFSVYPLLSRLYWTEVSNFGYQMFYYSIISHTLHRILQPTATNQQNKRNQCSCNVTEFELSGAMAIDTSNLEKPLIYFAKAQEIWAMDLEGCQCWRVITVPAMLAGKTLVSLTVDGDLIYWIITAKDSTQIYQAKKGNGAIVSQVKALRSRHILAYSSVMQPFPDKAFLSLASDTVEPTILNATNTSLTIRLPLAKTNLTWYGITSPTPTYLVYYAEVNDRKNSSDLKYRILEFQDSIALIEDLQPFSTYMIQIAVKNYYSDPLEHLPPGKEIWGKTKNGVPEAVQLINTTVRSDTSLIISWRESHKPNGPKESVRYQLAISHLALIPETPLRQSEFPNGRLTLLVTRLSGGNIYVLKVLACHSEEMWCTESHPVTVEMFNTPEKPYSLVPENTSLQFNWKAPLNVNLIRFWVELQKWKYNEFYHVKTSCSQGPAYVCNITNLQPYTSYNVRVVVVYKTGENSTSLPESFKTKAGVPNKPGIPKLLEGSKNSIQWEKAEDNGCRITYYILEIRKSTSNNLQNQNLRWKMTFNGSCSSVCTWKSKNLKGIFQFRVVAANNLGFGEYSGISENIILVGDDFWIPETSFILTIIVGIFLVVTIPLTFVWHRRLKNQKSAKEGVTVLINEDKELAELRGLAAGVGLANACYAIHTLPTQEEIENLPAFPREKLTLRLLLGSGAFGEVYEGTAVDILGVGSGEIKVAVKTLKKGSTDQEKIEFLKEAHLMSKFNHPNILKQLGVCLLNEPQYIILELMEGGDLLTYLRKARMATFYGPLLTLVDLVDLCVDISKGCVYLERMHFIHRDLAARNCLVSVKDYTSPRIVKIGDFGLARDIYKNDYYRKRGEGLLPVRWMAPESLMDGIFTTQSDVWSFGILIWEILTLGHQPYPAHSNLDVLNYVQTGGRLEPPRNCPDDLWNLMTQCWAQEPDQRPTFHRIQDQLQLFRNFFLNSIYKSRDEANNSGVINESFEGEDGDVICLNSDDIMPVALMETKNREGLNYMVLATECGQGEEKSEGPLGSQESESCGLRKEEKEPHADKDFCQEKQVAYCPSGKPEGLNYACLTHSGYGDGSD
Chain of CSNK1E (CK1 epsilon) R178C (P49674 whole entry R178C): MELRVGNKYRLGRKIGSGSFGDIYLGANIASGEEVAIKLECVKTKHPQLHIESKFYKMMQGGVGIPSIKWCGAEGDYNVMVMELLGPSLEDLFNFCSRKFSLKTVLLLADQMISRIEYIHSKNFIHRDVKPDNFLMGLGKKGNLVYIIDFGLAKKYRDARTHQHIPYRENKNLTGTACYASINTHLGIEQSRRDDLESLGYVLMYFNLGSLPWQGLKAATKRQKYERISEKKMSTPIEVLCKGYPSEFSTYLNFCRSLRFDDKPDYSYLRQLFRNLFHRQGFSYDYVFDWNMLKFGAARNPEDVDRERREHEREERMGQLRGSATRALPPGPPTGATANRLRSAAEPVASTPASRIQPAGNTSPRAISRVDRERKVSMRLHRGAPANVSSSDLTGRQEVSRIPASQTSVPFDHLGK
T12 sequence (Q16512 whole entry): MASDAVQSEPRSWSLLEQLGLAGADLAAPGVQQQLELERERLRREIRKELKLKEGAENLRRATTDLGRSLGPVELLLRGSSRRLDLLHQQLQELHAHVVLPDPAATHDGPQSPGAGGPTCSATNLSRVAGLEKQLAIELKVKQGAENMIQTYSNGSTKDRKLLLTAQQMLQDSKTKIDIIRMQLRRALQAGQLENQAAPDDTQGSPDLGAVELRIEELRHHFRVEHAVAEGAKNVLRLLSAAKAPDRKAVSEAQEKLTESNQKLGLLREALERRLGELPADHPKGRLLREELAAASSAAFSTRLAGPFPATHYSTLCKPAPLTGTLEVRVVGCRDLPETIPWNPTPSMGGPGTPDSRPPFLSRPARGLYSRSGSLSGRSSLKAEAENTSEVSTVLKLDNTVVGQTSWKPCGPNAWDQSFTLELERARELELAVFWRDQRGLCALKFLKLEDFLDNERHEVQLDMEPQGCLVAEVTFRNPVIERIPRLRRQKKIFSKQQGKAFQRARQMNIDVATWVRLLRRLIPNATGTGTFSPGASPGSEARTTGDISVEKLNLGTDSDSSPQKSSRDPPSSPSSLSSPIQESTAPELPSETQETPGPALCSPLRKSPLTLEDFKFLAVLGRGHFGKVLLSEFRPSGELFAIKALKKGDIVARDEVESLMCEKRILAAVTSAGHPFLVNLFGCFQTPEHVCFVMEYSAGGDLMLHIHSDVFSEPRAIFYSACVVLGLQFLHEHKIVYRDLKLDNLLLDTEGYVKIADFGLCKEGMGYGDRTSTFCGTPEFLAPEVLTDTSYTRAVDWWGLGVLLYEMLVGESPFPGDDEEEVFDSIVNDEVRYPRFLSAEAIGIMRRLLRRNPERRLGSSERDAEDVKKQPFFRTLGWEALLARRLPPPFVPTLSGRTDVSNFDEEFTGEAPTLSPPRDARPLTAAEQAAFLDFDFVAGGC
T19 sequence (O96017 whole entry): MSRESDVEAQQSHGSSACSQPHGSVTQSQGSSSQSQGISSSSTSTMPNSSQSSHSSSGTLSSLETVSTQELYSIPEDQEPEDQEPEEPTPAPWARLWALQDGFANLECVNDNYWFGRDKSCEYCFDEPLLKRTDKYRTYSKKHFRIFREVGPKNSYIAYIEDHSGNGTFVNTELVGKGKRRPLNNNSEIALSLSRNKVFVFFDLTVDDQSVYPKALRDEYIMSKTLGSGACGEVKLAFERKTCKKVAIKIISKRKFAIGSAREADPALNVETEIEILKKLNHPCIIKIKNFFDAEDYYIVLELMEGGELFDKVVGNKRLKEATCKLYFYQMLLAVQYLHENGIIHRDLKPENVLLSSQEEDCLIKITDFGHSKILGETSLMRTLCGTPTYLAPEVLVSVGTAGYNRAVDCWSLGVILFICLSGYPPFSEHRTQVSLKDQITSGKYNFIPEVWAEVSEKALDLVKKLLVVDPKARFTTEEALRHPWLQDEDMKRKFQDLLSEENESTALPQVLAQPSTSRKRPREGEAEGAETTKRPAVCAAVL

`COc1ccc2[nH]c3c(=O)[nH]c4ccc(O)cc4c3c2c1` [Compound 55, 2-Hydroxy-10-methoxy-5,7-dihydro-6H-indolo[2,3-c]quinolin-6-one] showed an inhibition at 1 µM (STK3 (MST2)) of 99%, an inhibition at 1 µM (PAK3) of 5% and an inhibition at 1 µM (MAP4K4 (HGK)) of 81%. For the same molecule, the inhibition at 1 µM (KSR2) was 7%, the inhibition at 1 µM [1] was 70% and the inhibition at 1 µM (RPS6KA5 (MSK1)) was 28%. The inhibition at 1 µM (DCAMKL1 (DCLK1)) was 2%, the inhibition at 1 µM (AKT1 (PKB alpha)) was 6% and the inhibition at 1 µM (JAK2) was 54%. The inhibition at 1 µM (ROS1) was 29%, the inhibition at 1 µM (SGKL (SGK3)) was 9% and the inhibition at 1 µM (PDGFRB (PDGFR beta)) was 23%. The inhibition at 1 µM (MAPK3 (ERK1)) was 27%, the inhibition at 1 µM (MAP3K19 (YSK4)) was 49% and the inhibition at 1 µM (PRKCG (PKC gamma)) was 14%. The inhibition at 1 µM (PKN1 (PRK1)) was 4%, the inhibition at 1 µM (NTRK3 (TRKC)) was 93% and the inhibition at 1 µM (TEK (TIE2) Y897S) was 1%. It also gave an inhibition at 1 µM (MARK4) of 31%, an inhibition at 1 µM (EEF2K) of 7% and an inhibition at 1 µM (SRC) of 37%. For the same molecule, the inhibition at 1 µM (FGFR2 N549H) was 24%, the inhibition at 1 µM (AMPK (A1/B2/G2)) was 67% and the inhibition at 1 µM (CHEK2 (CHK2)) was 33%. The inhibition at 1 µM (STK23 (MSSK1)) was 4%, the inhibition at 1 µM (DYRK4) was 42% and the inhibition at 1 µM (SBK1) was 1%. It also gave an inhibition at 1 µM (BMX) of 14%, an inhibition at 1 µM (KIT V559D V654A) of 19% and an inhibition at 1 µM (TNK1) of 30%. For the same molecule, the inhibition at 1 µM (ABL2 (Arg)) was 24%, the inhibition at 1 µM (RET V804L) was 98% and the inhibition at 1 µM (FRK (PTK5)) was 33%. It also gave an inhibition at 1 µM (PIM3) of 33%, an inhibition at 1 µM (MAPK1 (ERK2)) of 19% and an inhibition at 1 µM (MET M1250T) of 12%. The inhibition at 1 µM (EGFR (ErbB1) C797S) was 4% and the inhibition at 1 µM (FLT3 D835Y) was 100%.
